Counter-ions that a name gives are not always drawn.
Assays:
male Swiss Webster mice [1] = assay: warm-water tail immersion assay, antagonism of morphine's antinociception; assay type: in vivo, mouse; details: for Tail flick assay (dose response) AD50: 95% CL
Procedure: Following this single dose assessment, in vivo dose-response studies with eight identified antagonists were conducted.
(§1) Antinociceptive effect of synthesized compounds was determined using the warm-water tail immersion assay. Swiss Webster mice (six male mice for each group, 25-35 g, 6-8 weeks old) were used in this assay. Antinociception for all compounds was examined in male Swiss Webster mice. […] To prevent tissue damage, a 10 s maximum cutoff time was imposed. Antinociceptive response was calculated as the percentage of maximum possible effect (% MPE), where % MPE=[(test−control latency)/(10−control latency)]×100.
(§2) Warm-water tail immersion assay is a well-established assay for evaluating opioid analgesics, especially MOR agonists. […] In this context, all 24 compounds were first evaluated for their acute antinociception tail-withdrawal assay (FIG. 5A).
(§3) The tail-withdrawal test was performed using a water bath with the temperature maintained at 56±0.1° C. Baseline latency was measured before any injections. Each mouse was gently wrapped in a cloth with only the tail exposed. The distal one-third of the tail was immersed perpendicularly in water, and the mouse rapidly flicked the tail from the bath was seen as the first sign of discomfort. The duration of time the tail remained in the water bath was counted as the baseline latency. Untreated mice with baseline latency reaction times ranging from 2 to 4 seconds were used. Test latency was obtained 20 min later after each injection. A 10-second maximum cutoff latency was used to prevent any tissue damage. Antinociception was quantified as the percentage of maximal possible effect (% MPE), which was calculated as % MPE=[(test latency−control latency)/(10−control latency)]×100. The % MPE value was calculated for each mouse using 6 mice per group. Testing compounds were given 10 mg/kg (s.c.) to each mouse.

morphine-pelleted mice = assay: opioid withdrawal study in morphine-pelleted mice; details: for Withdrawal study: wet-dog shakes, escape jumps, paw tremors: 1 mg/kg dose, compared to 1 mg/kg naloxone; for withdrawal symptoms (wet-dog shakes, escape jumps, paw tremors): 1 mg/kg s.c., compared to 1 mg/kg NLX; for withdrawal symptoms at higher doses: 5 mg/kg and above, s.c.
[2] = Metabolic Stability (half-life), rat
male Swiss Webster mice [3] = assay: warm-water tail immersion (tail flick / tail-withdrawal) assay, antinociception; assay type: in vivo, mouse; details: mice
Procedure: In this assay, the duration for which mice kept their tails in the warm water was recorded.
All thirty-six compounds' antinociception were examined in tail immersion assay first to preclude any opioid receptor agonists.
as §1, with “Swiss” for “Antinociceptive effect of synthesized compounds was determined using the warm-water tail immersion assay. Swiss”
as §2, §3

[4] = In vivo Bioavailability Foral; details: po
h5-HT1b = h5-HT1b (Homo sapiens, UniProt P28222); assay: side effect profiling, h5-HT1b; assay type: binding; details: for h5-HT1b binding: at 10 uM
Sequence of h5-HT1b (P28222 whole entry): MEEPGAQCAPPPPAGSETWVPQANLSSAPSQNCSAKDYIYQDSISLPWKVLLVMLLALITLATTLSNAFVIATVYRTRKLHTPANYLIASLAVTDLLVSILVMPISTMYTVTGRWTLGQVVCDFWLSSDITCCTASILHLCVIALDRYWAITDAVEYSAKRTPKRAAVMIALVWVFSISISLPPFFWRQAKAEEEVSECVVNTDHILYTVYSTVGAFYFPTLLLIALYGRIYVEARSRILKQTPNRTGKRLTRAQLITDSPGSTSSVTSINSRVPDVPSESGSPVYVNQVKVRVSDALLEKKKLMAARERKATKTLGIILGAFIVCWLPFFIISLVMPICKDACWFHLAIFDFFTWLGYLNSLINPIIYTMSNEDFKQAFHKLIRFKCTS

[5] = Self-administration Studies, Abuse liability; details: in vivo
[6] = tested on: Serotonin receptor, dopamine receptor, biogenic amine transporters; assay: side effect profiling panel binding; details: up to 10 μM, except the targets listed
hNK1 = hNK1 (Homo sapiens, UniProt P25103); assay: side effect profiling, hNK1; assay type: binding; details: at 10 uM
Sequence of hNK1 (P25103 whole entry): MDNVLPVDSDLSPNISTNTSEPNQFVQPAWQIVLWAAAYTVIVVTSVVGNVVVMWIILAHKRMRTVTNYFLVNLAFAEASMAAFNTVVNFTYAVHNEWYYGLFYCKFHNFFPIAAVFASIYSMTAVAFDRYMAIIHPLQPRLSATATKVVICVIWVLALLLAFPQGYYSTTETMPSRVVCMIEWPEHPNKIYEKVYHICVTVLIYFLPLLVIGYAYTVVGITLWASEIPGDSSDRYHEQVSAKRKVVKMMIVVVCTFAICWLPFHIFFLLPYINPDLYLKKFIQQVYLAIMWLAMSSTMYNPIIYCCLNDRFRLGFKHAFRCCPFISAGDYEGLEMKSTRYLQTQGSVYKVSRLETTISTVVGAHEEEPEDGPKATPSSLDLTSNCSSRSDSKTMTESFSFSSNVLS

[7] = tested on: self-administration rat model; assay: Self-administration Studies, Food vs Drug (heroin choice); assay type: in vivo
[8] = Protein Binding (plasma), human
hERG channel = hERG channel (Homo sapiens, UniProt Q12809); assay: hERG channel testing
Sequence of hERG channel (Q12809 whole entry): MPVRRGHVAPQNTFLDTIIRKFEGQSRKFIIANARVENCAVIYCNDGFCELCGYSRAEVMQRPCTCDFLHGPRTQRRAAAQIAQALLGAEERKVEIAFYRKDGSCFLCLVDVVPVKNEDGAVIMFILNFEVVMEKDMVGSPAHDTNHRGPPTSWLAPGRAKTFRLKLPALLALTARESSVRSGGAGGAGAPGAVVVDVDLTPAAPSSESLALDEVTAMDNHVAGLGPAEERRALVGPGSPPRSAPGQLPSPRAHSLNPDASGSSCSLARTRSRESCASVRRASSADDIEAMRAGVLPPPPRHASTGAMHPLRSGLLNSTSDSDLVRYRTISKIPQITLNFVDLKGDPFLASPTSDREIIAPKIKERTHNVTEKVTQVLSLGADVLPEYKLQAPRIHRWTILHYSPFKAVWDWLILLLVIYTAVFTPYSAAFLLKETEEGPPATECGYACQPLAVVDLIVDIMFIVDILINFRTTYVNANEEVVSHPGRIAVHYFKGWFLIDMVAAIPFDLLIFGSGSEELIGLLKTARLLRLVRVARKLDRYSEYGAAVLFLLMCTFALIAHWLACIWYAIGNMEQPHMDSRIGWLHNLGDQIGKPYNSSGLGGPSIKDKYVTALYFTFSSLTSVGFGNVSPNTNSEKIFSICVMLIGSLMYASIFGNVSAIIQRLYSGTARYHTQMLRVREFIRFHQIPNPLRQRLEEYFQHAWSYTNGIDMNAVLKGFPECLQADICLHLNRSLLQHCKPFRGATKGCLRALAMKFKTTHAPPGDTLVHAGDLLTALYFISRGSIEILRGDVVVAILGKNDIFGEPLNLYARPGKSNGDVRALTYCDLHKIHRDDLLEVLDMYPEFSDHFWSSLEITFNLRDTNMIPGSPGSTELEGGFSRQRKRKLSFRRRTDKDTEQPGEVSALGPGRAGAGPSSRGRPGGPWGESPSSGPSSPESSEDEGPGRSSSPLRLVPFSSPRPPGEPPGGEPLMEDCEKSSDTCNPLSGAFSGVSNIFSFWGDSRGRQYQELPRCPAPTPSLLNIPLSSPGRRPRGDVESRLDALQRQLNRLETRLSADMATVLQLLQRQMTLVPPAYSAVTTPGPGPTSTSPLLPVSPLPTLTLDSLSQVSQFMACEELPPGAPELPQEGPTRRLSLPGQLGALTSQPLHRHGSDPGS

hα1D = hα1D (Homo sapiens, UniProt P25100); assay: side effect profiling, hα1D; assay type: binding
Sequence of hα1D (P25100 whole entry): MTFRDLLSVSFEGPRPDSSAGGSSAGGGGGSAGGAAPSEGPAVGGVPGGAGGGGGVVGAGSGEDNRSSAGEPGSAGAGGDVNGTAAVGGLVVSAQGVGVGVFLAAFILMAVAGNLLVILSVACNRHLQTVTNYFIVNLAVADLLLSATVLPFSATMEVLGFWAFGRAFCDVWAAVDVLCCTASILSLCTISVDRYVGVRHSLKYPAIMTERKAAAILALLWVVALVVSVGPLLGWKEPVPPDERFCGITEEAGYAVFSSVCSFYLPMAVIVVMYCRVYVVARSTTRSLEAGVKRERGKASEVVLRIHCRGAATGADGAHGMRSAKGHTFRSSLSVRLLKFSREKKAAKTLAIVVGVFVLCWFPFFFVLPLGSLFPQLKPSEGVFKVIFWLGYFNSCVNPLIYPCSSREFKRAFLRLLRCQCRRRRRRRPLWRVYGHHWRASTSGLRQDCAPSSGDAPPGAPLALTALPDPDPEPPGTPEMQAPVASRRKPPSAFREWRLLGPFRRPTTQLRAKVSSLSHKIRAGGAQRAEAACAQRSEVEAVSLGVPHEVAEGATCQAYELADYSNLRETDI

hNOP = hNOP (Homo sapiens, UniProt P41146); assay: side effect profiling, hNOP; assay type: binding; details: for hNOP binding: at 10 uM
Sequence of hNOP (P41146 whole entry): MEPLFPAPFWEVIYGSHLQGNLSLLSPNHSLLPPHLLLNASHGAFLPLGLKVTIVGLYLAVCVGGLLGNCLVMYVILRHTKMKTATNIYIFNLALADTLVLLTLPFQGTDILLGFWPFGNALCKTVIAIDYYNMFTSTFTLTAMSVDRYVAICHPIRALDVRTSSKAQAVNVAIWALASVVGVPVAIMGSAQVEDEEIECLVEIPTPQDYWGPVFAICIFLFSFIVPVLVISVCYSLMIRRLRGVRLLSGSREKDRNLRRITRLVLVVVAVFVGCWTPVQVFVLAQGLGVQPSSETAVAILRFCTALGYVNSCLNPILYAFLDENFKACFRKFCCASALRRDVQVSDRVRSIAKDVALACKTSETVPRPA

Potassium channel hERG = Potassium channel hERG (Homo sapiens, UniProt Q12809); assay: side effect profiling, hERG channel; details: for hERG channel binding: at 10 uM
Sequence of Potassium channel hERG (Q12809 whole entry): as the sequence (Q12809 whole entry) above

h5-HT2b = h5-HT2b (Homo sapiens, UniProt P41595); assay: side effect profiling, h5-HT2b; assay type: binding; details: at 10 uM
hNK3 = hNK3 (Homo sapiens, UniProt P29371); assay: side effect profiling, hNK3; assay type: binding
Sequence of hNK3 (P29371 whole entry): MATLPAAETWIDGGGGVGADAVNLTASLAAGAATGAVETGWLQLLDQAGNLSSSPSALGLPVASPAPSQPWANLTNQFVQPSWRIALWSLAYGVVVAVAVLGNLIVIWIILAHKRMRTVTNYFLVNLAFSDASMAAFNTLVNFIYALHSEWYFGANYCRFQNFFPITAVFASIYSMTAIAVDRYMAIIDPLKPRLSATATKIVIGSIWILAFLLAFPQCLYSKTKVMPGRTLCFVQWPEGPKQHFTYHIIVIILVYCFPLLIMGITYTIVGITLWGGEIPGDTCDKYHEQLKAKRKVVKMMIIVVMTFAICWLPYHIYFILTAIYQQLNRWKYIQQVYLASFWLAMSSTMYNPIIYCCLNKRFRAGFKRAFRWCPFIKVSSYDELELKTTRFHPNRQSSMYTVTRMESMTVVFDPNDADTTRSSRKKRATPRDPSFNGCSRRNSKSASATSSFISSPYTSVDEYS

MOR-CHO cells = molecular target: T1, MOR-CHO cells (Mus musculus, UniProt P42866); assay: Calcium flux on MOR-CHO cells, acting as antagonists against DAMGO; assay type: cell-based
T1 construct: expressed in transfected cells; host or cells: CHO
T1 sequence (P42866 whole entry): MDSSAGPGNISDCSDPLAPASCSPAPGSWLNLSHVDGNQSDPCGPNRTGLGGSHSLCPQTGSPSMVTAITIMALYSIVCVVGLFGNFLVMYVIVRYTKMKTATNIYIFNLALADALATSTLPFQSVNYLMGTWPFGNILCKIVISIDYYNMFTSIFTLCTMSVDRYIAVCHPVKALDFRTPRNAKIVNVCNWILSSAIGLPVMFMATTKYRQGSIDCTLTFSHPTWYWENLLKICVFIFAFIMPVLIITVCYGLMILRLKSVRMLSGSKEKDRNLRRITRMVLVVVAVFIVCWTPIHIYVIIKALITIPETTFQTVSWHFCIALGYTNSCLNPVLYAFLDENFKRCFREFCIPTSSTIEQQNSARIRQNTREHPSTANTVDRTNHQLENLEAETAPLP

hM4 = molecular target: T2, hM4 (Homo sapiens, UniProt P08173); assay: side effect profiling, hM4; assay type: binding; details: for hM4 binding: at 10 uM
T2 sequence (P08173 1-479): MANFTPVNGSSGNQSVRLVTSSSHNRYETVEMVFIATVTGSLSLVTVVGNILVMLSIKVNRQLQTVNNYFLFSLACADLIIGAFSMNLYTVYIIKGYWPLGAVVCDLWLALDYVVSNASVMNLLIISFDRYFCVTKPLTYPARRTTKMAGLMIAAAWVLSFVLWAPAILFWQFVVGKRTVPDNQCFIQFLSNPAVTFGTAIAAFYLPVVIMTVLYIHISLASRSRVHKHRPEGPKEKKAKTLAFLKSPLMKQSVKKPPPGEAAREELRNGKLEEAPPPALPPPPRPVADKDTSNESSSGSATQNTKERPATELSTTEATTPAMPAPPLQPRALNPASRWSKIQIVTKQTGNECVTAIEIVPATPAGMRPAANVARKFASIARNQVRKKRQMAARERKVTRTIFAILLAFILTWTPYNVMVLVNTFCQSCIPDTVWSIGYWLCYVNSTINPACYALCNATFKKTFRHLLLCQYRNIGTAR

Caco-2 permeability = details: human, Caco-2, pH 7.4
Procedure: Human epithelial colorectal adenocarcinoma (Caco-2) cells (HTB-37) were cultured in T75 flasks using complete Dulbecco's Modified Eagles Medium (DMEM) containing 10% fetal bovine serum (FBS), 1% glutamine, 1% penicillin and 1% streptomycin, at 37° C. in a 5% CO2 atmosphere. Cells were passaged at 80-90% confluency using 0.05% trypsin-EDTA and the medium was changed every other day. Following this, the cells were trypsinized, suspended in medium and applied to a Millipore 96-well plate where they were cultured as monolayers at a density of 25,000 cells/well. The cells were incubated in a 37° C./5% CO2 incubator to allow cell attachment and proliferation. Media was changed every 2-3 days for 21 days when cells reached 100% confluency. […] Following centrifugation, the supernatant for donor and receiver side samples was analyzed by HPLC-MS/MS to determine peak area ratios.
Data was expressed as Papp (cm/s):
where VR is the volume of the receiver chamber. […] CD, mid is the calculated mid-point concentration of the test compound in the donor side, which is the mean value of the donor concentration at time 0 minute and the donor concentration at the end time point. […] Concentrations of the test compound were expressed as peak areas of the test compound.

MOR = MOR (Mus musculus, UniProt P42866); details: read-out: Binding Affinity Ki (nM) ± SEM, MOR; Tables A, B
Procedure: (§4) Binding affinity and selectivity of all synthesized ligands on the three opioid receptors were determined using the competitive radioligand binding assay.
(§5) The competition binding assay was conducted using the monoclonal mouse opioid receptors expressed in Chinese hamster ovary (CHO) cell lines (monoclonal human δ opioid receptor was used in the DOR assay). […] The bound radioligand was separated by filtration using the Brandel harvester. Specific (i.e., opioid receptor-related) binding at the MOR, KOR, and DOR was determined as the difference in binding obtained in the absence and presence of 5 μM naltrexone, U50,488, and SNC80, respectively. […]
(§6) Results were reported as mean values ±SEM. […] By using the Cheng-Prusoff equation Ki=IC50/[1+([L]/KD)], where [L] is the concentration of the competitor and KD is the KD of the radioligand, binding Ki values were determined from IC50 values.
(§7) The competition binding assay was conducted using the monoclonal mouse opioid mu or kappa receptor expressed in CHO cell lines (monoclonal human δ opioid receptor was used in the DOR assay). […] Specific (i.e., opioid receptor-related) binding to the MOR, KOR, and DOR was determined as the difference in binding obtained in the absence and presence of 5 μM of naltrexone, U50,488, and SNC80, respectively. […]

DOR = molecular target: T3, DOR (Homo sapiens, UniProt P41143); assay: competitive radioligand binding assay, DOR ([3H]diprenorphine, CHO cell membranes); details: Tables A, B; read-out: Binding Affinity Ki (nM) ± SEM, DOR
T3 construct: expressed in transfected cells; host or cells: CHO
Procedure: as §4, §5, §6, §7

Row | Structure (SMILES) | Tail flick assay (dose response) AD50 (male Swiss Webster mice [1]; mice) | Withdrawal study: wet-dog shakes, escape jumps, paw tremors (morphine-pelleted mice) | half-life [2] | bioavailability [4] | h5-HT1b binding (h5-HT1b) | Self-administration Studies Abuse liability [5] | side effect profiling, binding to panel [6] | hNK1 binding (hNK1) | Self-administration Studies Food vs Drug [7] | fraction unbound [8] | hERG channel testing (Eurofins) (hERG channel) | Ki (hNOP) | hNOP binding (hNOP) | hERG channel binding (Potassium channel hERG) | withdrawal symptoms (wet-dog shakes, escape jumps, paw tremors) (morphine-pelleted mice) | withdrawal symptoms at higher doses (morphine-pelleted mice) | IC50 (MOR-CHO cells) | hM4 binding (hM4) | also measured
1 | O=C(N[C@H]1CCC2(O)C3Cc4ccc(O)c5c4[C@@]2(CCN3CC2CC2)[C@H]1O5)c1ccc[nH]1 (stereo partly drawn) [Example 1 compound 1, 17-Cyclopropylmethyl-3,14β-dihydroxy-4,5α-epoxy-6a-[(2′-pyrrolyl)carboxamido]morphinan hydrochloride] | The AD50 of NAY was determined as 4.71 (1.61- mg/kg | At 1 mg/kg dose of NAY produced NO wet-dog | > 1 h | 59% | 85% | No significant abuse liability | No significant binding up | 89% | reduce heroin choice and increase food choice | 0.43 | 2.6 µM | 1440 nM | 59% | Potassium channel hERG (52% at 10 uM), |  |  |  |  | Tail flick assay, anti-nociceptive effect (in words) (male Swiss Webster mice [3]; single dose, dose printed with the value): No anti-nociceptive effect up to 100 mg/kg.; Ki (h5-HT1b): 482 nM; hERG channel testing (NIH) (hERG channel; NIH): 12.5 µM; Ki (hα1D): 771 nM; hα1D binding (hα1D; at 10 uM): 84%; Ki (Potassium channel hERG): 8600 nM
2 | O=C(N[C@H]1CC[C@@]2(O)[C@H]3Cc4ccc(O)c5c4[C@@]2(CCN3CC2CC2)[C@H]1O5)c1cccs1 [Example 1 compound 25, 17-Cyclopropylmethyl-3,14β-dihydroxy-4,5α-epoxy-6α-(2′-thienylcarboxamido)morphinan hydrochloride] |  |  | > 1 h | 19% |  |  |  |  |  | 0.63 | 2.5 µM (Eurofins) | 6400 nM | 60% |  | significantly fewer wet-dog shakes, escape jumps, and paw tremors | started showing wet dog shakes and jumps at a 5 mg/kg dose | 26.7 nM | 61% | h5-HT2b binding (h5-HT2b): h5-HT2b (78% at 10 uM); Withdrawal study: wet-dog shakes, escape jumps, paw tremors at high dose (morphine-pelleted mice; high dose (5 to 20 mg/kg), compared to naloxone at 1 mg/kg, listed as NAT, hydrochloride): lower compared to naloxone at 1 mg/kg.; Tail flick assay, percentage maximum possible effect (% MPE) (male Swiss Webster mice [3]; single dose 10 mg/kg): effect (% MPE) of NAT (10 mg/kg) was 15.2; Ki (hNK3): 3900 nM; hNK3 binding (hNK3; at 10 uM): 56%; Ki (hM4): 4900 nM
3 | O=C(N[C@H]1CC[C@@]2(O)[C@H]3Cc4ccc(O)c5c4[C@@]2(CCN3CC2CC2)[C@H]1O5)c1ccsc1 [Example 1 compound 31, 17-Cyclopropylmethyl-3,14β-dihydroxy-4,5α-epoxy-6α-(3′-thienylcarboxamido)morphinan hydrochloride] |  | produced significantly fewer wet-dog shakes, | 0.733 h | 15% | h5-HT1b (98% at 10 uM) | No significant abuse liability |  | hNK1 (80% at 10 uM) | reduce heroin choice and increase food choice in a | 0.4 | 1.3 µM (Eurofins) |  |  | hERG channel (58% at 10 uM) | significantly fewer wet-dog shakes, escape jumps, and paw tremors | started showing wet dog shakes and jumps at a 5 mg/kg dose | 28.9 nM | hM4 (65% at 10 uM) | antagonism of morphine's antinociceptive effect (in words) (male Swiss Webster mice [1]; Example 1 compounds, 10 mg/kg s.c. in the presence of morphine (10 mg/kg)): significantly antagonized morphine's antinociceptive effect; AD50 mg/kg (95% CL) to antagonize morphine mediated antinociception (male Swiss Webster mice [1]; Example 1 compounds, s.c., mice, morphine 10 mg/kg): 1.51 mg/kg
4 | O=C(N[C@H]1CC[C@@]2(O)[C@H]3Cc4ccc(O)c5c4[C@@]2(CCN3CC2CC2)[C@H]1O5)c1nccs1 [NTZ, 17-Cyclopropylmethyl-3,14β-dihydroxy-4,5α-epoxy-6α-(2′-thiazolylcarboxamido)morphinan hydrochloride] | The AD50 of VZMN283 was determined as 0.043 mg/kg | fewer symptoms than naloxone at the same dose. | > 1 h |  |  | No significant abuse liability | No significant binding up |  | reduce heroin choice and increase food choice in a | 0.56 | 7.4 µM (Eurofins) |  |  |  |  |  |  | hM4 (67% at 10 uM) | Tail flick assay, antagonism of morphine's antinociceptive effect (in words) (male Swiss Webster mice [1]; mice, single dose 10 mg/kg): significantly antagonized morphine's antinociceptive; Withdrawal study: precipitation of withdrawal syndromes (morphine-pelleted mice; up to 0.1 mg/kg): No significant precipitation of withdrawal syndromes; efflux ratio at 1 h, 10 μM (Caco-2 permeability): 2.5; Ki (MOR): 0.25 ± 0.03 nM; Ki (DOR): 41.1 ± 3.58 nM

Reference: patent US20250195504A1, “NALTREXAMINE DERIVATIVES BEARING 5-MEMBER HETEROCYCLIC RING SYSTEMS AND OPIOID RECEPTOR MODULATORS” (VIRGINIA COMMONWEALTH UNIVERSITY, priority 2022, published 2025)
